Test results published in US20250171452A1 (Viscient Bio, Inc., priority 2022, published 2025).
Read-outs that look alike come from different tables or passages of the source.

Experiments:
IDO2 = IDO2 (Homo sapiens (Human), UniProt Q6ZQW0); test: Cellular IDO2 assay, doxycycline and 5-methoxy-L-tryptophan medium, colorimetric; assay type: cell-based
[1] = biological target: Indoleamine 2,3-dioxygenase 1 (IDO1) (Homo sapiens (Human), UniProt P14902); test: Cellular IDO1 assay: kynurenine production in IFN-γ-stimulated HeLa cells, colorimetric
Indoleamine 2,3-dioxygenase 1 (IDO1), sequence (P14902 whole entry): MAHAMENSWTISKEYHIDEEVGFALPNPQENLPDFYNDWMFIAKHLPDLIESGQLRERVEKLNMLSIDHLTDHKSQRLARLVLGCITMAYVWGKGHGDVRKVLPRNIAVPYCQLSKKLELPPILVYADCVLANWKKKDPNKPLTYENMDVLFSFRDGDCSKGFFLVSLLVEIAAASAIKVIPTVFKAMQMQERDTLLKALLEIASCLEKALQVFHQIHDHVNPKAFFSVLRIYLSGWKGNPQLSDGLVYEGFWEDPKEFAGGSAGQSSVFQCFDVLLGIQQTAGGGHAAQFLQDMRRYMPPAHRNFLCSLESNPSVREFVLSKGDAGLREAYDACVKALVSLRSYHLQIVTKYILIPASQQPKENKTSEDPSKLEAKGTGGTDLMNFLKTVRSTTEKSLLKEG

[2] = cellular level, 72 h incubation, signal at 480 nm

IDO2, sequence (Q6ZQW0 whole entry, species assumed): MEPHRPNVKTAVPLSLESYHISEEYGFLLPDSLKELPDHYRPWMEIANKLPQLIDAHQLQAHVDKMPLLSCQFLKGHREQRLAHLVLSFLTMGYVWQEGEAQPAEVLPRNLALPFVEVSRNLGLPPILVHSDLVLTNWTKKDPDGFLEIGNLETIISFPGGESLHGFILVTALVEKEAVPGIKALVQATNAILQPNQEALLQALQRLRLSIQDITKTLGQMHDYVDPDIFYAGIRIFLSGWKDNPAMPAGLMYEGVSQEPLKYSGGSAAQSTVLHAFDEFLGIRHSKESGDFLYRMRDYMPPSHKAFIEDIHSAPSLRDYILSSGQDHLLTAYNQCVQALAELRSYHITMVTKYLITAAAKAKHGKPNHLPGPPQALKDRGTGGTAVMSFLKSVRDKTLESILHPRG

IC50 (IDO2; [2])	IC50 [1]	SMILES	IC50 (IDO2)
50 to 500 nM	50 to 500 nM	CN(C)C(=O)c1ccc2c(c1)C(=O)c1nc3cc(Cl)cc(Cl)c3c(=O)n1-2 [Compound 24, 1,3-Dichloro-N,N-dimethyl-6,12-dioxo-6,12-dihydroindolo[2,1-b]quinazoline-8-carboxamide]	–
50 to 500 nM	> 500 nM	NCCNC(=O)c1ccc2c(c1)C(=O)c1nc3cc(Cl)ccc3c(=O)n1-2 [Compound 10, N-(2-Aminoethyl)-3-chloro-6,12-dioxo-6,12-dihydroindolo[2,1-b]quinazoline-8-carboxamide]	–
< 50 nM	< 50 nM	O=[N+]([O-])c1ccc2c(c1)C(O)C1Nc3cc(F)ccc3CN21 (stereo not drawn) [Compound 21, 3-Fluoro-8-nitro-5H,5aH,6H,12H-indolo[2,1-b]quinazolin-6-ol]	–
50 to 500 nM	50 to 500 nM	O=C1c2cc(C(=O)N3CCNCC3)ccc2-n2c1nc1cc(Cl)cc(Cl)c1c2=O [Compound 25, 1,3-dichloro-8-(piperazine-1-carbonyl)indolo[2,1-b]quinazoline-6,12-dione]	–
< 50 nM	50 to 500 nM	Cc1cc(F)cc2c(=O)n3c(nc12)C(=O)c1cc([N+](=O)[O-])ccc1-3 [Compound 49, 2-Fluoro-4-methyl-8-nitroindolo[2,1-b]quinazoline-6,12-dione]	–
< 50 nM	< 50 nM	O=C1c2cc([N+](=O)[O-])ccc2-n2c1nc1cc(F)ccc1c2=O [Compound 2, 3-Fluoro-8-nitroindolo[2,1-b]quinazoline-6,12-dione]	–
50 to 500 nM	> 500 nM	O=C1c2cc([N+](=O)[O-])ccc2-n2c1nc1cnc(O)cc1c2=O [Compound 51, 3-Hydroxy-9-nitropyrido[3′,4′:4,5]pyrimido[1,2-a]indole-5,11-dione]	–
< 50 nM	< 50 nM	Cc1cccc2nc3n(c(=O)c12)-c1ccc([N+](=O)[O-])cc1C3=O [Compound 38, 1-Methyl-8-nitroindolo[2,1-b]quinazoline-6,12-dione]	–
50 to 500 nM	50 to 500 nM	CC(=O)Nc1ccc2c(c1)C(=O)c1nc3cc(Cl)ccc3c(=O)n1-2 [Compound 7, N-(3-Chloro-6,12-dioxo-6,12-dihydroindolo[2,1-b]quinazolin-8-yl)acetamide]	–
50 to 500 nM	50 to 500 nM	O=C1c2c(F)cc(F)cc2NC2C(O)c3cc([N+](=O)[O-])ccc3N12 (stereo not drawn) [Compound 32, 1,3-Difluoro-6-hydroxy-8-nitro-5a,6-dihydroindolo[2,1-b]quinazolin-12(5H)-one]	–
< 50 nM	50 to 500 nM	NS(=O)(=O)c1ccc2c(c1)C(=O)c1nc3cc(F)ccc3c(=O)n1-2 [Compound 27]	–
< 50 nM	50 to 500 nM	O=C1c2cc(SCc3ccccc3)ccc2-n2c1nc1cc(F)ccc1c2=O [Compound 28]	–
< 50 nM	50 to 500 nM	Cc1c(F)ccc2c(=O)n3c(nc12)C(=O)c1cc([N+](=O)[O-])ccc1-3 [Compound 30, 3-Fluoro-4-methyl-8-nitroindolo[2,1-b]quinazoline-6,12-dione]	–
< 50 nM	50 to 500 nM	N#Cc1ccc2c(c1)C(=O)c1nc3c(Br)cccc3c(=O)n1-2 [Compound 46, 4-bromo-6,12-dioxo-6,12-dihydroindolo[2,1-b]quinazoline-8-carbonitrile]	–
50 to 500 nM	50 to 500 nM	NC(=O)c1ccc2c(c1)C(=O)c1nc3cc(Cl)ccc3c(=O)n1-2 [Compound 8, 3-Chloro-6,12-dioxo-6,12-dihydroindolo[2,1-b]quinazoline-8-carboxamide]	–
50 to 500 nM	50 to 500 nM	COC(=O)c1ccc2c(c1)C(=O)c1nc3cc(Cl)ccc3c(=O)n1-2 [Compound 6, Methyl 3-chloro-6,12-dioxo-6,12-dihydroindolo[2,1-b]quinazoline-8-carboxylate]	–
50 to 500 nM	> 500 nM	O=C1c2cc([N+](=O)[O-])ccc2-n2c1nc1c(Br)c(Cl)ccc1c2=O [Compound 50, 4-Bromo-3-chloro-8-nitroindolo[2,1-b]quinazoline-6,12-dione]	–
< 50 nM	50 to 500 nM	CS(=O)(=O)c1ccc2c(c1)C(=O)c1nc3cc(F)ccc3c(=O)n1-2 [Compound 14, 3-Fluoro-8-(methylsulfonyl)indolo[2,1-b]quinazoline-6,12-dione]	–
50 to 500 nM	> 500 nM	Nc1ccc2c(c1)C(=O)c1nc3cc(Cl)ccc3c(=O)n1-2 [Compound 5, 8-Amino-3-chloroindolo[2,1-b]quinazoline-6,12-dione]	–

SMILES	IC50 (IDO2; [2])	IC50 [1]	IC50 (IDO2)
O=C(O)c1ccc2c(c1)C(=O)c1nc3cc(Cl)ccc3c(=O)n1-2 [Compound 4, 3-Chloro-6,12-dioxo-6,12-dihydroindolo[2,1-b]quinazoline-8-carboxylic Acid]	> 500 nM	> 500 nM	–
O=C1c2cc([N+](=O)[O-])ccc2-n2c1nc1cccc(F)c1c2=O [Compound 37, 1-Fluoro-8-nitroindolo[2,1-b]quinazoline-6,12-dione]	–	< 50 nM	< 50 nM
